Source: the supplement of paper PMC10307832

Key:
Test in all cases: relative viability (nuclei count vs DMSO), 5 days (fraction); higher = more cells survive
NCI-H1915 = tested on: NCI-H1915
Procedure, shortened: (§1)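 Values are medians from duplicate plates. Each reflects relative viability, defined as the nuclei count of treated wells over that of vehicle wells. Lung cancer cell lines in 1536-well plates were pin-tool dosed one day after seeding with one drug alone or with a fixed anchor-drug dose plus five library-drug doses (not always all listed) in √10 steps, then fixed, stained and imaged at 4× after 5 days.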

NCI-H1993 = tested on: NCI-H1993
Procedure, shortened: as §1

HARA = tested on: HARA
Procedure, shortened: as §1

NCI-H2023 = tested on: NCI-H2023
Procedure, shortened: as §1

NCI-H2085 = tested on: NCI-H2085
Procedure, shortened: as §1

LC-2-ad = tested on: LC-2-ad
Procedure, shortened: as §1

NCI-H1355 = tested on: NCI-H1355
Procedure, shortened: as §1

NCI-H650 = tested on: NCI-H650
Procedure, shortened: as §1

EPLC-272H = tested on: EPLC-272H
Procedure, shortened: as §1

NCI-H1651 = tested on: NCI-H1651
Procedure, shortened: as §1

HCC-15 = tested on: HCC-15
Procedure, shortened: as §1

HCC-78 = tested on: HCC-78
Procedure, shortened: as §1

SW 1573 = tested on: SW 1573
Procedure, shortened: as §1

NCI-H2126 = tested on: NCI-H2126
Procedure, shortened: as §1

NCI-H2347 = tested on: NCI-H2347
Procedure, shortened: as §1

ABC-1 = tested on: ABC-1
Procedure, shortened: as §1

PC-14 = tested on: PC-14
Procedure, shortened: as §1

UMC-11 = tested on: UMC-11
Procedure, shortened: as §1

COR-L23 = tested on: COR-L23
Procedure, shortened: as §1

NCI-H838 = tested on: NCI-H838
Procedure, shortened: as §1

LU99A = tested on: LU99A
Procedure, shortened: as §1

In the case of `NC(=O)Nc1cc(-c2cccc(F)c2)sc1C(=O)N[C@H]1CCCNC1` [AZD7762] + CC(C)C[C@H](NC(=O)[C@H](Cc1ccccc1)NC(=O)c1cnccn1)B(O)O [Bortezomib] (partner 0.002 µM), the relative viability (NCI-H1915; first compound 0.01 µM) is reported as 0.989, the relative viability (NCI-H1915; first compound 0.03162 µM) is reported as 0.99 and the relative viability (NCI-H1915; first compound 0.1 µM) is reported as 1.03. For the same compound, the relative viability (NCI-H1915; first compound 0.3162 µM) was 1.02, the relative viability (NCI-H1915; first compound 1 µM) was 0.959 and the relative viability (NCI-H1993; first compound 0.01 µM) was 1.2. The relative viability (NCI-H1993; first compound 0.03162 µM) was 1.08, the relative viability (NCI-H1993; first compound 0.1 µM) was 1.07 and the relative viability (NCI-H1993; first compound 0.3162 µM) was 1.36. For the same compound, the relative viability (NCI-H1993; first compound 1 µM) was 0.841, the relative viability (HARA; first compound 0.01 µM) was 1.08 and the relative viability (HARA; first compound 0.03162 µM) was 1.11. The relative viability (HARA; first compound 0.1 µM) was 1.14, the relative viability (HARA; first compound 0.3162 µM) was 1.13 and the relative viability (HARA; first compound 1 µM) was 0.42. It also gave a relative viability (NCI-H2023; first compound 0.01 µM) of 0.82, a relative viability (NCI-H2023; first compound 0.03162 µM) of 0.904 and a relative viability (NCI-H2023; first compound 0.1 µM) of 0.465. The relative viability (NCI-H2023; first compound 0.3162 µM) was 0.283, the relative viability (NCI-H2023; first compound 1 µM) was 0.104 and the relative viability (NCI-H2085; first compound 0.01 µM) was 1.11. The relative viability (NCI-H2085; first compound 0.03162 µM) was 1.14, the relative viability (NCI-H2085; first compound 0.1 µM) was 1.11 and the relative viability (NCI-H2085; first compound 0.3162 µM) was 1.14. It also gave a relative viability (NCI-H2085; first compound 1 µM) of 0.887, a relative viability (LC-2-ad; first compound 0.01 µM) of 1.04 and a relative viability (LC-2-ad; first compound 0.03162 µM) of 1.14. It also gave a relative viability (LC-2-ad; first compound 0.1 µM) of 0.975, a relative viability (LC-2-ad; first compound 0.3162 µM) of 0.909 and a relative viability (LC-2-ad; first compound 1 µM) of 0.732. It also gave a relative viability (NCI-H1355; first compound 0.01 µM) of 1.17, a relative viability (NCI-H1355; first compound 0.03162 µM) of 1.23 and a relative viability (NCI-H1355; first compound 0.1 µM) of 1.21. The relative viability (NCI-H1355; first compound 0.3162 µM) was 1.27, the relative viability (NCI-H1355; first compound 1 µM) was 1.19 and the relative viability (NCI-H650; first compound 0.01 µM) was 0.851. It also gave a relative viability (NCI-H650; first compound 0.03162 µM) of 0.892, a relative viability (NCI-H650; first compound 0.1 µM) of 0.772 and a relative viability (NCI-H650; first compound 0.3162 µM) of 0.687. It also gave a relative viability (NCI-H650; first compound 1 µM) of 0.767, a relative viability (EPLC-272H; first compound 0.01 µM) of 0.81 and a relative viability (EPLC-272H; first compound 0.03162 µM) of 1.01. It also gave a relative viability (EPLC-272H; first compound 0.1 µM) of 1.02, a relative viability (EPLC-272H; first compound 0.3162 µM) of 0.828 and a relative viability (EPLC-272H; first compound 1 µM) of 0.992. The relative viability (NCI-H1651; first compound 0.01 µM) was 0.945, the relative viability (NCI-H1651; first compound 0.03162 µM) was 0.932 and the relative viability (NCI-H1651; first compound 0.1 µM) was 1.01. It also gave a relative viability (NCI-H1651; first compound 0.3162 µM) of 0.963, a relative viability (NCI-H1651; first compound 1 µM) of 0.686 and a relative viability (HCC-15; first compound 0.01 µM) of 1.01. For the same compound, the relative viability (HCC-15; first compound 0.03162 µM) was 0.95, the relative viability (HCC-15; first compound 0.1 µM) was 0.898 and the relative viability (HCC-15; first compound 0.3162 µM) was 0.937. For the same compound, the relative viability (HCC-15; first compound 1 µM) was 0.986, the relative viability (HCC-78; first compound 0.01 µM) was 0.561 and the relative viability (HCC-78; first compound 0.03162 µM) was 0.528. For the same compound, the relative viability (HCC-78; first compound 0.1 µM) was 0.526, the relative viability (HCC-78; first compound 0.3162 µM) was 0.62 and the relative viability (HCC-78; first compound 1 µM) was 0.391. The relative viability (SW 1573; first compound 0.01 µM) was 1.12, the relative viability (SW 1573; first compound 0.03162 µM) was 1.4 and the relative viability (SW 1573; first compound 0.1 µM) was 1.21. For the same compound, the relative viability (SW 1573; first compound 0.3162 µM) was 1.22, the relative viability (SW 1573; first compound 1 µM) was 0.771 and the relative viability (NCI-H2126; first compound 0.01 µM) was 1.06. It also gave a relative viability (NCI-H2126; first compound 0.03162 µM) of 1.11, a relative viability (NCI-H2126; first compound 0.1 µM) of 1.18 and a relative viability (NCI-H2126; first compound 0.3162 µM) of 1.2. The relative viability (NCI-H2126; first compound 1 µM) was 1.07, the relative viability (NCI-H2347; first compound 0.01 µM) was 1.1 and the relative viability (NCI-H2347; first compound 0.03162 µM) was 0.967. The relative viability (NCI-H2347; first compound 0.1 µM) was 0.863, the relative viability (NCI-H2347; first compound 0.3162 µM) was 1.17 and the relative viability (NCI-H2347; first compound 1 µM) was 0.685. It also gave a relative viability (ABC-1; first compound 0.01 µM) of 0.276, a relative viability (ABC-1; first compound 0.03162 µM) of 0.389 and a relative viability (ABC-1; first compound 0.1 µM) of 0.3. For the same compound, the relative viability (ABC-1; first compound 0.3162 µM) was 0.26, the relative viability (ABC-1; first compound 1 µM) was 0.202 and the relative viability (PC-14; first compound 0.01 µM) was 0.848. The relative viability (PC-14; first compound 0.03162 µM) was 0.925, the relative viability (PC-14; first compound 0.1 µM) was 0.932 and the relative viability (PC-14; first compound 0.3162 µM) was 0.662. It also gave a relative viability (PC-14; first compound 1 µM) of 0.357, a relative viability (UMC-11; first compound 0.01 µM) of 0.692 and a relative viability (UMC-11; first compound 0.03162 µM) of 0.585. It also gave a relative viability (UMC-11; first compound 0.1 µM) of 0.409, a relative viability (UMC-11; first compound 0.3162 µM) of 0.632 and a relative viability (UMC-11; first compound 1 µM) of 0.435. The relative viability (COR-L23; first compound 0.01 µM) was 1.12, the relative viability (COR-L23; first compound 0.03162 µM) was 0.981 and the relative viability (COR-L23; first compound 0.1 µM) was 0.985. The relative viability (COR-L23; first compound 0.3162 µM) was 0.905, the relative viability (COR-L23; first compound 1 µM) was 0.229 and the relative viability (NCI-H838; first compound 0.01 µM) was 0.773. For the same compound, the relative viability (NCI-H838; first compound 0.03162 µM) was 0.814, the relative viability (NCI-H838; first compound 0.1 µM) was 0.715 and the relative viability (NCI-H838; first compound 0.3162 µM) was 0.724. The relative viability (NCI-H838; first compound 1 µM) was 0.303, the relative viability (LU99A; first compound 0.01 µM) was 1.09 and the relative viability (LU99A; first compound 0.03162 µM) was 1.24. For the same compound, the relative viability (LU99A; first compound 0.1 µM) was 1.25, the relative viability (LU99A; first compound 0.3162 µM) was 0.867 and the relative viability (LU99A; first compound 1 µM) was 0.402.
